The text below walks through data of ChEMBL document CHEMBL3880436, “Pharmaceutical composition containing optically active compound having thrombopoietin receptor agonist activity, and intermediate therefor” (2013).

The target of assay [1] is T1, Thrombopoietin receptor (Homo sapiens) (UniProt P40238).
T1 sequence (whole entry): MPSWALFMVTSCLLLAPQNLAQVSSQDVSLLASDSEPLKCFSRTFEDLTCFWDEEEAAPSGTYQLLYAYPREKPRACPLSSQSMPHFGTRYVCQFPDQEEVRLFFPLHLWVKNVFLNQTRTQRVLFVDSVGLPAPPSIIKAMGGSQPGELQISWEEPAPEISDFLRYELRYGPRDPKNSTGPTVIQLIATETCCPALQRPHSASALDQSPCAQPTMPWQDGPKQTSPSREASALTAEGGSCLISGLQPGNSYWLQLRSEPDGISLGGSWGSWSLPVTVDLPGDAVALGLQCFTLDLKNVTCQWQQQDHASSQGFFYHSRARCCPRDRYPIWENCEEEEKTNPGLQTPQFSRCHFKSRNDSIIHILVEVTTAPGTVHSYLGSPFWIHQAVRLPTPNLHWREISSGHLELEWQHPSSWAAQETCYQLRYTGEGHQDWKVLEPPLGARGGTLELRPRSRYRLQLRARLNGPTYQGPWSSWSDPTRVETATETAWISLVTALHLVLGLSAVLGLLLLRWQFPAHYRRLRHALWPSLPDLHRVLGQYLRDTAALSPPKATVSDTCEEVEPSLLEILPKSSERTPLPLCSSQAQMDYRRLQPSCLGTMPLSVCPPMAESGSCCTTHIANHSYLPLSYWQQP
Kind of assay: Agonist activity at human TPO receptor expressed in mouse BaF-B03 cells assessed as induction of cell proliferation after 20 hrs by WST-1 assay. The format is cell-based. On the technique in general: Tetrazolium dyes change colour on reduction, which living cells bring about.

In assay [2] the test system is Mus musculus. Kind of assay: Increase in platelet levels in mouse expressing human transmembrane site of TPO receptor administered as po bid for 2 weeks measured after 3 days to 3 weeks post initiation of initial dose relative to vehicle-treated control. The format is functional, organism-based.

The structures appear in SMILES notation. The source made the active and inactive calls. The rule behind the calls is not given here.

Regarding `CCCCCCO[C@@H](C)c1cccc(-c2csc(NC(=O)c3cc(Cl)c(/C=C(\C)C(=O)O)c(Cl)c3)n2)c1OC`, the ED50 in assay [1] stood at 1.09 nM. Also, the result in assay [2] was Active. For `CCCCCC[C@@H](OC)c1cccc(-c2csc(NC(=O)c3cc(Cl)c(/C=C(\C)C(=O)O)c(Cl)c3)n2)c1OC` the same measures were 3.09 nM and “Active”.

`CCCO[C@H](c1cccc(-c2csc(NC(=O)c3cc(Cl)c(/C=C(\C)C(=O)O)c(Cl)c3)n2)c1OC)C(C)(C)C`: the result in assay [2] was Active.

As to `CCCCCC[C@H](OC)c1cccc(-c2csc(NC(=O)c3cc(Cl)c(/C=C(\C)C(=O)O)c(Cl)c3)n2)c1OC`, the ED50 in assay [1] was 2.08 nM. Moreover, the outcome in assay [2] was Active. With `CCCCCCO[C@H](C)c1cccc(-c2csc(NC(=O)c3cc(Cl)c(/C=C(\C)C(=O)O)c(Cl)c3)n2)c1OC`, the ED50 in assay [1] amounted to 1.4 nM. In assay [2], the outcome was Active.
